{"source": "patent US20260216335A1", "about": "“COMPOSITIONS AND METHODS FOR TARGETING AND TREATING TUMOR” (JIANGSU CODE BIOMEDICAL TECHNOLOGY CO., LTD., priority 2023, published 2026)", "assay_type_in_all_cases": "physicochemical", "key": {"[1]": {"assay": "Photothermal stability, laser ON 3 min / OFF 7 min cycles", "conditions": "NIR laser 3 min ON, 7 min OFF", "protocol": "DdH2O, blank nanoparticles, 0.012 mg/mL free ICG, nanoparticles containing ICG and Fe3O4 (concentration of ICG is 0.012 mg/mL) and nanoparticles containing ICG and oleic acid modified Fe3O4 were continuously irradiated at 1.5 W/cm2 by 808 nm laser emitter. […] Then, PLGA nanoparticles coated with oleic acid modified Fe3O4 and free oleic acid modified Fe3O4 were irradiated continuously.\nICG@NPs, free ICG, ICG/OA-Fe3O4@NPs, free ICG/OA-Fe3O4 were irradiated with the NIR laser for 3 min (Laser ON), followed by natural cooling for 7 min (Laser OFF).\nFurthermore, to investigate the photothermal conversion stability of ICG/OA-Fe3O4@PLGA for practical applications, solutions of ICG/OA-Fe3O4@PLGA, ICG/Fe3O4@PLGA, ICG@PLGA, Blank-NPs and free ICG were irradiated with the NIR laser for 3 min (Laser ON), followed by natural cooling for 7 min (Laser OFF)."}, "[2]": {"assay": "Photothermal conversion under continuous 808 nm laser irradiation, 1.5 W/cm^2", "conditions": "808 nm NIR laser", "protocol": "DdH2O, blank nanoparticles, 0.012 mg/mL free ICG, nanoparticles containing ICG and Fe3O4 (concentration of ICG is 0.012 mg/mL) and nanoparticles containing ICG and oleic acid modified Fe3O4 were continuously irradiated at 1.5 W/cm2 by 808 nm laser emitter. […] Then, PLGA nanoparticles coated with oleic acid modified Fe3O4 and free oleic acid modified Fe3O4 were irradiated continuously. […] But the heat production capacity is low. Then, we used intermittent irradiation method, every 3 minutes to raise the temperature to the highest point, and stopped the irradiation for 7 minutes to bring the temperature back to room temperature until the temperature no longer increased.\nTo evaluate its photothermal conversion performance, ICG/OA-Fe3O4@PLGA solutions were irradiated with an 808 nm NIR laser (1.5 W/cm^2, FIGS. 3A-3C). […] No significant temperature changes were found in Blank-NP solution and DI water. Only negligible temperature increase of Blank-NP solution and DI water were found."}, "[3]": {"assay": "Photothermal heating under 808 nm NIR laser, 1.0 W/cm^2 for 10 min", "conditions": "1.0 W/cm^2, 10 min, 1 mL aqueous, 12 μg/mL ICG or 11.6 μg/mL Fe", "protocol": "To synthesize an effectiveness photothermal agents, we explore the synergistic effect of ICG and OA-Fe3O4. Various photothermal agents were exposed to 808 nm NIR laser irradiation with a power density of 1.0 W/cm^2 for 10 min. Aqueous suspensions of ICG/OA-Fe3O4@NPs, mixture of free ICG and OA-Fe3O4 (1 mL solution with 12 μg/mL ICG or 11.6 μg/mL Fe) reach the maximum temperatures of 45.9° C., 46.6° C."}}, "data": [{"smiles": "CC1(C)C(/C=C/C=C/C=C/C=C2\\N(CCCCS(=O)(=O)O)c3ccc4ccccc4c3C2(C)C)=[N+](CCCCS(=O)(=O)[O-])c2ccc3ccccc3c21", "note": "[free ICG, Indocyanine green]", "values": [{"measurement": "maxim temperature, laser ON/OFF cycle 1", "setting": "[1]; 1st of six cycles", "result": 40.9, "unit": "°C"}, {"measurement": "maxim temperature, laser ON/OFF cycle 2", "setting": "[1]; 2nd of six cycles", "result": 37.1, "unit": "°C"}, {"measurement": "maxim temperature, laser ON/OFF cycle 3", "setting": "[1]; 3rd of six cycles", "result": 33.8, "unit": "°C"}, {"measurement": "maxim temperature, laser ON/OFF cycle 4", "setting": "[1]; 4th of six cycles", "result": 32.8, "unit": "°C"}, {"measurement": "maxim temperature, laser ON/OFF cycle 5", "setting": "[1]; 5th of six cycles", "result": 30.7, "unit": "°C"}, {"measurement": "maxim temperature, laser ON/OFF cycle 6", "setting": "[1]; 6th of six cycles", "result": 30.1, "unit": "°C"}, {"measurement": "time high temperature was maintained", "setting": "[2]", "result": "only a few minutes"}, {"measurement": "temperature reached by the solution", "setting": "[2]; 500 μg mL-1", "result": 47.3, "unit": "°C"}, {"measurement": "maximum temperature", "setting": "[3]", "result": 41.8, "unit": "°C"}]}]}
